The test concerns type I collagen, normal human dermal fibroblasts. Briefly: Collagen assay: type I collagen by sandwich ELISA in fibroblast culture-conditioned medium. The format is cell-based. As to conditions: 4 days, LbGp 1.25 mg/ml and/or palmitoyl hexapeptide-6 0.20 mg/ml. The protocol: Normal human dermal fibroblasts (Cambrex, Walkersville, Md.) were seeded into a 96-well plate and grown to confluence. They were then challenged with several concentrations of the test samples for 4 days. The fibroblast culture-conditioned medium was harvested and tested for type I collagen by sandwich ELISA using affinity-purified antibodies. Magnesium ascorbyl phosphate (MAP) was tested along with the sample as a positive control.
(In general: An ELISA detects its analyte on a solid surface through an enzyme-linked reagent.)

As for “palmitoyl hexapeptide-6 [Hydrophobic peptide alone]”, the “Type I collagen Assay” value worked out at 420.

These data come from patent US7807625B2, “Anti-wrinkle composition” (Grant Industries, Inc, priority 2006, dated 2010).
